Consider 1 compound from publication PMC8348236, “Improving the Utility of a Dynorphin Peptide Analogue Using Mannosylated Glycoliposomes” (International Journal of Molecular Sciences, 2021).

For data set [1] the following is noted: female BALB/c mice, intranasal, 2.0 µg, 20 min; average ± SD of 5 mice.
For data set [2] the following is noted: peptide without delivery system; cited from earlier work. The source says: Initially, the ability of DS1 and DS2 to entrap and protect dynantin from proteolytic degradation in human plasma ex vivo was compared (Figure 3A).
A further data set can be described thus: in vivo. As to conditions: female, BALB/c, mouse, inhaled or intranasal, 2 ug.
The target of data set [3] is T1, KOR (Mus musculus, UniProt P33534). In words: In vitro dopamine modulation in fresh mouse striatum homogenates. As to conditions: mouse (C57BL/6) striatal homogenate, 90 min, 4 °C in the dark, LC/MS, average ± SD, n = 5, PBS control 0.54 ± 0.07.
Procedure: The gently homogenized tissue was treated with either PBS or dynantin at 1 and 10 µM concentrations for 90 min, after which dopamine levels were analyzed.
Striatal tissue was collected from the brains of sacrificed mice (n = 15), gently homogenized and then treated with either PBS (60 µL, n = 5) or dynantin in PBS at a concentration of either 1 µM (60 µL, n = 5) or 10 µM (60 µL, n = 5) for 90 min at 4 °C in the dark. Dopamine was extracted and its levels analyzed by LC/MS in the presence of 0.1% formic acid.
Analyses were performed using an Acquity Class H UPLC system with an Acquity QDa detector (Waters Limited, Mississauga, ON, Canada). Separations took place on an Acquity UPLC BEH C18 column, 1.7 µm, 100 mm × 2.1 mm(Waters Limited, Mississauga, ON, Canada), and were achieved using a binary gradient elution (Table 3) of water and acetonitrile (both with 0.1% formic acid, v/v) and a uniform flow rate of 0.4 mL/min. […]
Male C57BL/6 mice (n = 15) were sacrificed by CO2 asphyxiation and cervical dislocation. […] The amount of dopamine extracted was analyzed via LC/MS (5 µL injections) and quantified using the dopamine: dopamine-D2 peak area ratio and a standard curve that was generated using increasing concentrations of dopamine in the presence of a set concentration of the dopamine-D2 internal standard. […]
Data set [4] has as its target T1, KOR. In words: In vivo striatal dopamine modulation after intranasal administration. The settings on record: female BALB/c mice, 2.0 µg dynantin, 20 min after administration, LC/MS, average ± SD of 5 mice.
Procedure: The ability of the glycoliposome delivery systems to improve both the delivery and activity of dynantin in the brain was studied in an in vivo mouse model. Female BALB/c mice (5 per group) were intranasally administered dynantin (2.0 µg dose) alone or entrapped in either DS1 or DS2. Mice were sacrificed 20 min later and blood (sera), lungs and brains were collected. […] Striatum tissue was immediately removed and neurotransmitter levels analyzed by LC/MS.
Dynantin (2.0 µg total dose) was administered intranasally to female BALB/c mice (5 per group) either alone or entrapped with DS1 or DS2 (1:5 ratio of peptide: particles). The mice were euthanized 20 min after administration and the lung, brain, and blood (sera) were collected. Brains were immediately dissected on ice to obtain striatum tissue from which dopamine was extracted and its levels analyzed by LC/MS in the presence of 0.1% formic acid (A). […]
For each mouse, blood was placed in sera tubes, which were spun at 10,000 rpm for 5 min and sera collected. […] The amount of dopamine extracted was analyzed via LC/MS (5 µL injections) and quantified using the dopamine: dopamine-D2 peak area ratio and a standard curve that was generated using increasing concentrations of dopamine in the presence of a set concentration of the dopamine-D2 internal standard. […]

T1 sequence (P33534 whole entry): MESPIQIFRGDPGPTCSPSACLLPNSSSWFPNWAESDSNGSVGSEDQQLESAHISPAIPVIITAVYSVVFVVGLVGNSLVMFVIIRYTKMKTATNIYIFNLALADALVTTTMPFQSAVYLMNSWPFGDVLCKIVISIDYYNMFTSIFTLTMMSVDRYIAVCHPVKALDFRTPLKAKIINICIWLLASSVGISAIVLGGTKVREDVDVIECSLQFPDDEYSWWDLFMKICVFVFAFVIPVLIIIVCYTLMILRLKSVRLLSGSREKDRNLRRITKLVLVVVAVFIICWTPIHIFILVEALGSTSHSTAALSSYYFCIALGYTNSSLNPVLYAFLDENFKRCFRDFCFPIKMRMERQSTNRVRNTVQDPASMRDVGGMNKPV

Regarding `CC[C@H](C)[C@H](NC(=O)[C@H](CCCNC(=N)N)NC(=O)[C@H](CCCNC(=N)N)NC(=O)[C@H](CC(C)C)NC(=O)[C@H](Cc1ccccc1)NC(=O)CNC(=O)CNC(=O)[C@@H](C)Cc1c(C)cc(O)cc1C)C(=O)N[C@@H](CCCNC(=N)N)C(=O)N1CCC[C@H]1C(=O)N[C@@H](CCCCN)C(N)=O` [Dynantin], in data set [1], the “percentage of total dose recovered, Brain” value is given as 8.15 ± 3.06%; the “percentage of total dose recovered, Lung” value was 4.93 ± 0.89%; the “percentage of total dose recovered, Sera” value is reported as 21.66 ± 3.99%. Besides, the “time to rapid and complete degradation in human plasma” value in data set [2] is reported as at most 12 h. For the same compound, the tissue level at time at 20 min in the data set “in vivo” (brain (remaining tissue after removal of striatum)) stood at 560 ± 200 ng/g. Further, the tissue level at time at 20 min in “in vivo” (lung) was determined as 560 ± 120 ng/g. Also, the level at 20 min in the data set “in vivo” (serum) was determined as 1300 ± 160 ng/mL. Moreover, the “striatal dopamine level, 1 µM dynantin” value on KOR [3] (1 µM in PBS) is given as 0.78 ± 0.10 ng/mg. Further, the “striatal dopamine level, 10 µM dynantin” value on KOR [3] (10 µM in PBS) amounted to 0.98 ± 0.09 ng/mg. For the same compound, at KOR [4], the “striatal dopamine level in vivo” value was determined as 0.58 ± 0.05 ng/mg.
